According to patent publication US5736629A, “Herbicide resistant rice” (priority 1997, dated 1998):

Tests used:
[1] = system: progeny of the mutant rice plant (ATCC 97523); test: Subsequent greenhouse and field testing of progeny of the surviving plant; type: in vivo; settings: herbicides applied either pre-emergence or post-emergence
Source text: (Imazamox is sold by American Cyanamid under the trade name Raptor, and has as active ingredient (+)-5-methoxymethyl-2-(4-isopropyl-4-methyl-5-oxo-2-imidazolin-2-yl) nicotinic acid. Imazameth is sold by American Cyanamid under the trade name Cadre, and has as active ingredient (±)-2-[4,5-dihydro-4-methyl-4-(1-methyl-ethyl)-5-oxo-1H-imidazol-2-yl]- 5-methyl-3-pyridinecarboxylicacid;alternatechemicalname (±)-2-(4-isopropyl-4-methyl-5-oxo-2-imidazolin-2-yl)-5-methylnicotinic acid). Imazapyr is sold by American Cyanamid under the trade name Arsenal, and has active ingredient 2-[4,5-dihydro-4-methyl-4-(1-methylethyl)-5-oxo-1H-imidazol-2-yl]-3-pyridinecarboxylic acid) This line is resistant to herbicides applied either pre-emergence or post-emergence.

[2] = system: rice line ATCC 75295 (first resistance mechanism only); test: Greenhouse test of plant vigor after imazethapyr, ATCC 75295; type: in vivo; settings: for Rating of rice plant vigor: 36 days after treatment at 2-3 leaf stage, 10-point scale, 0 = dead plant, 10 = no visible injury
Source text: In the greenhouse tests, pots were planted with F3 seed from crosses between the two lines. Each pot was planted with seed from a single panicle from a single plant; each pot was therefore the equivalent of a headrow. A total of 140 pots were planted in this manner, along with 40 pots of various non-resistant genotypes for comparison. Imazethapyr was applied at the 2-3 leaf stage two weeks after planting, at rates equivalent to 0.063 lb. active ingredient (a.i.) per acre, 0.125 lb. a.i./acre, and 0.313 lb. a.i./acre.
Table 2 summarizes measurements taken 36 days after spraying rice at the 2-3 leaf stage of development.

[3] = system: other anther-culture progeny rows of Mercury//Lemont/Mercury rice; test: Open-field spray screen of anther-culture progeny rows, all other rows; type: in vivo
Experimental: This resistant line was derived by conducting anther culture on the F2 progeny of a backcross made by pollinating a rice plant of the variety "Lemont" with pollen from the rice variety "Mercury," followed by a backcross using pollen from this hybrid to pollinate a plant of the variety "Mercury." The resulting backcross is described as Mercury//Lemont/Mercury. Anthers collected from a plant resulting from this backcross were plated on callus induction medium, and the resulting calli were transferred to plant regeneration media. The procedures used were generally as described in Croughan and Chu, "Rice (Oryza saliva L.): Establishment of Callus Cultures and the Regeneration of Plants" in Bajaj (Ed.), "Biotechnology in Agriculture and Forestry," pp. 19-37 (1991). Several regenerated plants were produced and grown to maturity in a greenhouse to produce seed. Progeny seed were planted in an open field, and herbicide applications were made using a garden tractor-mounted spray rig.
A set of 4,193 progeny rows derived from this anther culture procedure were planted in an open field, and were sprayed with 4 ounces per acre of Pursuit (1.00 ounce active ingredient imazethapyr per acre) at the four-leaf stage of seedling development. […]

[4] = molecular target: T1, AHAS (acetohydroxyacid synthase) in enzyme extracts from normal rice variety Mercury (Oryza sativa subsp. japonica, UniProt Q6K2E8); test: AHAS enzyme assay, extract from rice variety Mercury; type: biochemical
T1 construct: 40.0 grams (fresh weight) of tissue were extracted in the same manner for each of the three varieties; from tissue; host or cells: stem tissue of greenhouse-grown rice seedlings, variety Mercury (leaf blades removed)
T1 sequence (Q6K2E8 40-644 limits assumed): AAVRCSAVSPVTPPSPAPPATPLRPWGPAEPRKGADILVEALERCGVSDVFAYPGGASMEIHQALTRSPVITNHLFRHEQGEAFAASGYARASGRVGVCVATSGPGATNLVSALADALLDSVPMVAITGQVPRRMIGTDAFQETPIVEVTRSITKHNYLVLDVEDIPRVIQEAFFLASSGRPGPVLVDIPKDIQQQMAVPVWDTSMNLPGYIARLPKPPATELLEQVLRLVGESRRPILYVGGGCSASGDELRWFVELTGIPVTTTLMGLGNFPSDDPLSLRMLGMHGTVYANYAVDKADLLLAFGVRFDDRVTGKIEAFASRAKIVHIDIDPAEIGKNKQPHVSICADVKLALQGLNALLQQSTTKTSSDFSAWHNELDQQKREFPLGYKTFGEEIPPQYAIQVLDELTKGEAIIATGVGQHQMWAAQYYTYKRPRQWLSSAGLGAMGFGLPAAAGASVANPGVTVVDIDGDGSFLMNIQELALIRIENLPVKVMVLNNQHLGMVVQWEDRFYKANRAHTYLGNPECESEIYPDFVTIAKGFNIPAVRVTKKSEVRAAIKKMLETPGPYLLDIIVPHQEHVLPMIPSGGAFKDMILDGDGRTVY
Source text: The herbicide resistance of the AHAS enzyme from the ATCC 75295 rice line was compared to the resistance of the AHAS enzymes from the rice varieties "Lemont" and "Mercury," the varieties that were the ancestors of this rice line. The procedures used to assay the activity of acetohydroxyacid synthase were substantially as described in B. K. Singh et al., "Assay of Acetohydroxyacid Synthase," Analytical Biochemistry, vol. 171, pp. 173-179 (1988), except as noted. In the first paragraph of Singh's "Materials and Methods," instead of corn suspension culture cells, stem tissues from greenhouse-grown rice seedlings at the four-leaf stage of development were used. Leaf blades were removed, and 40.0 grams (fresh weight) of tissue were extracted in the same manner for each of the three varieties. […] Pursuit herbicide (imazethapyr) was included in the "standard reaction mixture" for the AHAS assay in the concentrations indicated in Table 1 below. Checks were made of direct acetoin formation during the enzyme assay. Each treatment was conducted with two replicates.

SMILES: CCc1cnc(C2=NC(C)(C(C)C)C(=O)N2)c(C(=O)O)c1 (racemic) [imazethapyr, (±)-2-[4,5-dihydro-4-methyl-4-(1-methylethyl)-5-oxo-1H-imidazol-2-yl]-5-ethyl-3-pyridinecarboxylic acid]
- Resistance of the rice line (in words) [1]: resistance
- Rating of rice plant vigor ([2]; 0.063 lb. a.i./acre): 0.61 ± 0.03
- Rating of rice plant vigor ([2]; 0.125 lb. a.i./acre): 0.81 ± 0.45
- Rating of rice plant vigor ([2]; 0.313 lb. a.i./acre): about 0.6
- Rating of rice plant vigor ([2]; 0.313 lb. a.i./acre, listed as Imazethapyr): 0.55 ± 0.55
- Time to visible resumption of growth after herbicide application ([2]; ATCC 75295 plants, greenhouse test): about three weeks
- Visible injury (in words) ([2]; plants with only the first resistance mechanism, 0.313 lb a.i./acre, 36 days after treatment): substantial injury
- Symptoms (in words) ([3]; 4 ounces per acre Pursuit (1.00 ounce a.i. per acre), four-leaf stage, open field): injured or killed
- Symptoms (in words) ([3]; second spray 8 ounces/acre Pursuit (2.00 ounce a.i. per acre), four weeks after the initial treatment, rows that survived the initial spraying): lethal
- activity at 0.1 µM ([4]; imazethapyr 0.1 μM): 100%
- activity at 1 µM ([4]; imazethapyr 1 μM): 89%
- activity at 10 µM ([4]; imazethapyr 10 μM): 64%
- activity at 100 µM ([4]; imazethapyr 100 μM): 62%
